# Data as given in article PMC9516332 (Frontiers in Oncology, 2022).
# Where two headings read alike, the source gives them in different places.
# Columns and labels:
# [1] = molecular target: T1, panel of 255 wild-type kinases (Homo sapiens, UniProt O15264); conditions: cited from earlier work
# T1 sequence (O15264 1-365): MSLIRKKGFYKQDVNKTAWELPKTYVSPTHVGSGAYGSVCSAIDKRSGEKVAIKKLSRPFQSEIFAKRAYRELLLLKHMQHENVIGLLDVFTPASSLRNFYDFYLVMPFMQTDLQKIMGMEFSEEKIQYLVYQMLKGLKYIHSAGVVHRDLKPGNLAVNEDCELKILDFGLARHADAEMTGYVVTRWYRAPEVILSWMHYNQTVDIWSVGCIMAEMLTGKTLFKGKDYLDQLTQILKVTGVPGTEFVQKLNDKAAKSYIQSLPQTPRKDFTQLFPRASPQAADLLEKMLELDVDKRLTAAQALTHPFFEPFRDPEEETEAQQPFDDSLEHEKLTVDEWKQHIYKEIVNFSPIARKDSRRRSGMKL
# [2] = molecular target: panel of 255 wild-type kinases (Homo sapiens, UniProt Q15119); conditions: cited from earlier work
# [3] = molecular target: panel of 255 wild-type kinases (Homo sapiens, UniProt Q9P286); conditions: cited from earlier work
# [4] = molecular target: panel of 255 wild-type kinases (Homo sapiens, UniProt Q9UBS0); conditions: cited from earlier work
# [5] = system: AP-1060 (ETV6-NTRK3); experiment: Cell viability assay; conditions: read-out: IC50 in cell proliferation assay
# [6] = system: 134 cancer cell lines; experiment: Cell viability assay (ATPlite, 72 hours), IC50 on cancer cell line panel
compound,measurement,setting,value
COc1cc(N2CCC(N3CCN(C)CC3)CC2)ccc1Nc1ncc(Cl)c(Nc2ccccc2P(C)(C)=O)n1 [brigatinib],"%-inhibition, p38δ",[1],0.87%
same,"%-inhibition at 1 µmol/L, PDHK2",[2],2%
same,"%-inhibition, PAK5",[3],82%
same,"%-inhibition, p70S6Kβ",[4],98%
same,IC50,[5],2400 nM
same,IC50,"[6]; HEC-6, read-out: IC50 in cell proliferation assay",5210 nM
same,IC50,"[6]; Homo sapiens, 769-P, read-out: IC50 in cell proliferation assay",1910 nM
same,IC50,"[6]; Homo sapiens, 786-0, read-out: IC50 in cell proliferation assay",2070 nM
same,IC50,"[6]; Homo sapiens, A 172, read-out: IC50 in cell proliferation assay",888 nM
same,IC50,"[6]; Homo sapiens, A204, read-out: IC50 in cell proliferation assay",1270 nM
same,IC50,"[6]; Homo sapiens, A498, read-out: IC50 in cell proliferation assay",1860 nM
same,IC50,"[6]; Homo sapiens, A549, read-out: IC50 in cell proliferation assay",893 nM
same,IC50,"[6]; Homo sapiens, A704, read-out: IC50 in cell proliferation assay",3590 nM
same,IC50,"[6]; Homo sapiens, A-375, read-out: IC50 in cell proliferation assay",719 nM
same,IC50,"[6]; Homo sapiens, A-427, read-out: IC50 in cell proliferation assay",448 nM
same,IC50,"[6]; Homo sapiens, ACHN, read-out: IC50 in cell proliferation assay",894 nM
same,IC50,"[6]; Homo sapiens, AN3-CA, read-out: IC50 in cell proliferation assay",1860 nM
same,IC50,"[6]; Homo sapiens, ASPC1, read-out: IC50 in cell proliferation assay",809 nM
same,IC50,"[6]; Homo sapiens, AU565, read-out: IC50 in cell proliferation assay",2580 nM
same,IC50,"[6]; Homo sapiens, BT-20, read-out: IC50 in cell proliferation assay",4210 nM
same,IC50,"[6]; Homo sapiens, BT-474, read-out: IC50 in cell proliferation assay",7880 nM
same,IC50,"[6]; Homo sapiens, BT-549, read-out: IC50 in cell proliferation assay",3010 nM
same,IC50,"[6]; Homo sapiens, BXPC-3, read-out: IC50 in cell proliferation assay",619 nM
same,IC50,"[6]; Homo sapiens, C-33-A, read-out: IC50 in cell proliferation assay",527 nM
same,IC50,"[6]; Homo sapiens, CAL-27, read-out: IC50 in cell proliferation assay",673 nM
same,IC50,"[6]; Homo sapiens, CCF-STTG1, read-out: IC50 in cell proliferation assay",3440 nM
same,IC50,"[6]; Homo sapiens, CCRF-CEM, read-out: IC50 in cell proliferation assay",3600 nM
same,IC50,"[6]; Homo sapiens, COLO 205, read-out: IC50 in cell proliferation assay",998 nM
same,IC50,"[6]; Homo sapiens, COLO-829, read-out: IC50 in cell proliferation assay",2560 nM
same,IC50,"[6]; Homo sapiens, DLD-1, read-out: IC50 in cell proliferation assay",4720 nM
same,IC50,"[6]; Homo sapiens, DU-145, read-out: IC50 in cell proliferation assay",667 nM
same,IC50,"[6]; Homo sapiens, DU-4475, read-out: IC50 in cell proliferation assay",1790 nM
same,IC50,"[6]; Homo sapiens, Daoy, read-out: IC50 in cell proliferation assay",3070 nM
same,IC50,"[6]; Homo sapiens, DoTc2-4510, read-out: IC50 in cell proliferation assay",270 nM
same,IC50,"[6]; Homo sapiens, EOL1, read-out: IC50 in cell proliferation assay",50 nM
same,IC50,"[6]; Homo sapiens, FaDu, read-out: IC50 in cell proliferation assay",971 nM
same,IC50,"[6]; Homo sapiens, G-361, read-out: IC50 in cell proliferation assay",9280 nM
same,IC50,"[6]; Homo sapiens, HCC827, read-out: IC50 in cell proliferation assay",129 nM
same,IC50,"[6]; Homo sapiens, HCC4006, read-out: IC50 in cell proliferation assay",152 nM
same,IC50,"[6]; Homo sapiens, HCT-15, read-out: IC50 in cell proliferation assay",3770 nM
same,IC50,"[6]; Homo sapiens, HCT-116, read-out: IC50 in cell proliferation assay",1690 nM
same,IC50,"[6]; Homo sapiens, HEC-1, read-out: IC50 in cell proliferation assay",1810 nM
same,IC50,"[6]; Homo sapiens, HEC-1B, read-out: IC50 in cell proliferation assay",367 nM
same,IC50,"[6]; Homo sapiens, HL-60, read-out: IC50 in cell proliferation assay",1110 nM
same,IC50,"[6]; Homo sapiens, HT, read-out: IC50 in cell proliferation assay",4540 nM
same,IC50,"[6]; Homo sapiens, HT-1080, read-out: IC50 in cell proliferation assay",1660 nM
same,IC50,"[6]; Homo sapiens, Hs746T, read-out: IC50 in cell proliferation assay",2140 nM
same,IC50,"[6]; Homo sapiens, Hs-578T, read-out: IC50 in cell proliferation assay",1390 nM
same,IC50,"[6]; Homo sapiens, HuTu80, read-out: IC50 in cell proliferation assay",451 nM
same,IC50,"[6]; Homo sapiens, J82, read-out: IC50 in cell proliferation assay",1880 nM
same,IC50,"[6]; Homo sapiens, Jurkat E6.1, read-out: IC50 in cell proliferation assay",4380 nM
same,IC50,"[6]; Homo sapiens, K562, read-out: IC50 in cell proliferation assay",2740 nM
same,IC50,"[6]; Homo sapiens, KATO III, read-out: IC50 in cell proliferation assay",211 nM
same,IC50,"[6]; Homo sapiens, KG-1, read-out: IC50 in cell proliferation assay",243 nM
same,IC50,"[6]; Homo sapiens, KLE, read-out: IC50 in cell proliferation assay",553 nM
same,IC50,"[6]; Homo sapiens, KMS-11, read-out: IC50 in cell proliferation assay",430 nM
same,IC50,"[6]; Homo sapiens, KU812, read-out: IC50 in cell proliferation assay",1390 nM
same,IC50,"[6]; Homo sapiens, Kasumi 1, read-out: IC50 in cell proliferation assay",207 nM
same,IC50,"[6]; Homo sapiens, LC-2-ad, read-out: IC50 in cell proliferation assay",334 nM
same,IC50,"[6]; Homo sapiens, LNCaP-Clone-FGC, read-out: IC50 in cell proliferation assay",689 nM
